Measured values taken from patent US20240415819A1, “MACROCYCLIC COMPOUNDS AS PROTEASOME SUBUNIT BETA TYPE-5 INHIBITORS” (Lead Discovery Center GmbH, priority 2021, published 2024).

Assays:
B cell = B cell diff. (Table 4, method not given); assay type: cell-based; conditions: B-cell
[1] = system: B-cells isolated from PBMC's; experiment: Chymotrypsin-like ProteasomeGlo assay in B-cells isolated from PBMCs; assay type: cell-based, human; conditions: Homo sapiens; B-cells isolated from PBMC's; read-out: Pglo B-Cell
How it was run: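 Human B-cells were negatively isolated from buffy-coat PBMCs by density gradient, RBC lysis and Miltenyi magnetic separation. Cells were plated and compounds added by acoustic transfer after 1:100 dilution, with DMSO controls and medium-only wells. Chymotrypsin-like proteasome activity was read by luminescent ProteasomeGlo to derive IC50.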

PBMC = PBMC IL 17 stim. (Table 4, method not given); assay type: cell-based
Karpas cells = experiment: Glo assay of Karpas cells (Table 3; ProteasomeGlo plating scheme); assay type: cell-based; conditions: read-out: Pglo Karpas
How it was run: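 Cells plated in 384 wells; compound, DMSO, staurosporine transferred by ECHO; 105 min, 37° C., 5% CO2; Proteasome-Glo (Suc-LLVY-Glo) reagent added; dark 10-15 min; luminescence; IC50 nM.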

SMILES | IC50 (B cell) | IC50 (Karpas cells) | IC50 [1] | IC50 (PBMC)
Cc1ccc2cc1CNC(=O)[C@H](CCc1ccccc1)NC(=O)[C@@H](NS(C)(=O)=O)CC(=O)N1CCCC(CCO2)C1 (stereo partly drawn) [Compound 37, N-((9S,12S)-5^4-methyl-8,11,14-trioxo-9-phenethyl-4-oxa-7,10-diaza-1(3,1)-piperidina-5(1,3)-benzenacyclotetradecaphane-12-yl)methanesulfonamide] | < 0.1 µM |  | < 0.1 µM | 
Cc1ccc2cc1CNC(=O)[C@H](CCc1ccccc1)NC(=O)CCCCC(=O)N1CCCC(CCO2)C1 (stereo partly drawn) [Compound 16, (9S)-5^4-methyl-9-phenethyl-4-oxa-7,10-diaza-1(3,1)-piperidina-5(1,3)-benzenacyclohexadecaphane-8,11,16-trione] | < 0.1 µM |  | < 0.1 µM | < 0.1 µM
Cc1ccc2cc1CNC(=O)[C@H](CCc1ccccc1)NC(=O)[C@@H](Nc1nc3ccccc3[nH]1)CC(=O)N1CCCC(CCO2)C1 (stereo partly drawn) [Compound 45, (9S,12S)-12-((1H-benzo[d]imidazol-2-yl)amino)-5^4-methyl-9-phenethyl-4-oxa-7,10-diaza-1(3,1)-piperidina-5(1,3)-benzenacyclotetradecaphane-8,11,14-trione] | < 0.1 µM |  | 0.1 to 0.5 µM | 
Cc1ccc2cc1CNC(=O)[C@H](CCc1ccccc1)NC(=O)[C@@H](N1C(=O)CCC1=O)CC(=O)N1CCCC(CCO2)C1 (stereo partly drawn) [Compound 43, (9S,12S)-12-(2,5-dioxopyrrolidin-1-yl)-5^4-methyl-9-phenethyl-4-oxa-7,10-diaza-1(3,1)-piperidina-5(1,3)-benzenacyclotetradecaphane-8,11,14-trione] | < 0.1 µM |  | < 0.1 µM | 
Cc1ccc2cc1CNC(=O)[C@H](CCc1ccccc1)NC(=O)[C@@H](Nc1ccccn1)CC(=O)N1CCCC(CCO2)C1 (stereo partly drawn) [Compound 36, (9S,12S)-5^4-methyl-9-phenethyl-12-(pyridin-2-ylamino)-4-oxa-7,10-diaza-1(3,1)-piperidina-5(1,3)-benzenacyclotetradecaphane-8,11,14-trione] | < 0.1 µM |  | 0.1 to 0.5 µM | 
Cc1ccc2cc1CNC(=O)[C@H](CCc1ccccc1)NC(=O)[C@@H](NC(=O)c1ccncc1)CC(=O)N1CCCC(CCO2)C1 (stereo partly drawn) [Compound 42, N-((9S,12S)-5^4-methyl-8,11,14-trioxo-9-phenethyl-4-oxa-7,10-diaza-1(3,1)-piperidina-5(1,3)-benzenacyclotetradecaphane-12-yl)isonicotinamide] | < 0.1 µM |  | < 0.1 µM | 
Cc1ccc2cc1CNC(=O)[C@H](CCc1ccccc1)NC(=O)CCC(=O)N1CCCC(CCO2)C1 (stereo partly drawn) [Compound 13, (9S)-5^4-methyl-9-phenethyl-4-oxa-7,10-diaza-1(3,1)-piperidina-5(1,3)-benzenacyclotetradecaphane-8,11,14-trione] | 0.1 to 0.5 µM |  | < 0.1 µM | 

Further lines, with some results ahead:

IC50 (B cell) | IC50 (Karpas cells) | SMILES | IC50 [1] | IC50 (PBMC)
 | < 0.1 µM | COc1ccc(CC(=O)N[C@H]2CC(=O)N3CCCC(CCOc4ccc(C)c(c4)CNC(=O)[C@H](CCc4ccccc4)NC2=O)C3)cc1 (stereo partly drawn) [Compound 83, 2-(4-methoxyphenyl)-N-((9S,12S)-5^4-methyl-8,11,14-trioxo-9-phenethyl-4-oxa-7,10-diaza-1(3,1)-piperidina-5(1,3)-benzenacyclotetradecaphane-12-yl)acetamide] | < 0.1 µM | 
 | < 0.1 µM | Cc1ccc2cc1CNC(=O)[C@H](CCc1ccccc1)NC(=O)[C@@H](NC(=O)[C@@H](C)c1ccccc1)CC(=O)N1CCCC(CCO2)C1 (stereo partly drawn) [Compound 81, (2S)-N-((9S,12S)-5^4-methyl-8,11,14-trioxo-9-phenethyl-4-oxa-7,10-diaza-1(3,1)-piperidina-5(1,3)-benzenacyclotetradecaphane-12-yl)-2-phenylpropanamide] | < 0.1 µM | 
 | 0.1 to 0.5 µM | Cc1ccc2cc1CNC(=O)[C@H](Cc1c[nH]c3ccccc13)NC(=O)CCC(=O)N1CCCC(CCO2)C1 (stereo partly drawn) [Compound 77, (9S)-9-((1H-indol-3-yl)methyl)-5^4-methyl-4-oxa-7,10-diaza-1(3,1)-piperidina-5(1,3)-benzenacyclotetradecaphane-8,11,14-trione] | 0.1 to 0.5 µM | 
 | 0.5 to 1 µM | Cc1ccc2cc1CNC(=O)[C@H](Cc1ccccc1)NC(=O)CCC(=O)N1CCCC(CCO2)C1 (stereo partly drawn) [Compound 79, (9S)-9-benzyl-5^4-methyl-4-oxa-7,10-diaza-1(3,1)-piperidina-5(1,3)-benzenacyclotetradecaphane-8,11,14-trione] | 0.5 to 1 µM | 
 | < 0.1 µM | COc1ccc(CC(=O)N[C@H]2CC(=O)N3CCCC(CCOc4ccc(C)c(c4)CNC(=O)[C@H](CCc4ccccc4)NC2=O)C3)cc1OC (stereo partly drawn) [Compound 63, 2-(3,4-dimethoxyphenyl)-N-((9S,12S)-5^4-methyl-8,11,14-trioxo-9-phenethyl-4-oxa-7,10-diaza-1(3,1)-piperidina-5(1,3)-benzenacyclotetradecaphane-12-yl)acetamide] | < 0.1 µM | < 0.1 µM
 | 0.1 to 0.5 µM | Cc1ccc2cc1CNC(=O)[C@H](C)NC(=O)CCC(=O)N1CCCC(CCO2)C1 (stereo partly drawn) [Compound 78, (9S)-5^4,9-dimethyl-4-oxa-7,10-diaza-1(3,1)-piperidina-5(1,3)-benzenacyclotetradecaphane-8,11,14-trione] | 0.1 to 0.5 µM | 
 | 0.1 to 0.5 µM | Cc1ccc2cc1CNC(=O)[C@H](CCc1ccccc1)NC(=O)[C@@H](NC(=O)c1n[nH]c3ccccc13)CC(=O)N1CCCC(CCO2)C1 (stereo partly drawn) [Compound 60, N-((9S,12S)-5^4-methyl-8,11,14-trioxo-9-phenethyl-4-oxa-7,10-diaza-1(3,1)-piperidina-5(1,3)-benzenacyclotetradecaphane-12-yl)-1H-indazole-3-carboxamide] | 0.1 to 0.5 µM | 
